Test results taken from patent publication US5739158A, “Nitrogen-containing cyclohetero cycloalkylaminoaryl derivatives for CNS disorders” (The United States of America as represented by the …, priority 1992, dated 1998).

Tests used:
sigma receptors = target: T1, sigma receptors (Cavia porcellus, UniProt Q60492); test: Radioreceptor assay in guinea pig brain homogenate (P2 membranes), [3H]-(+)-3-PPP; assay type: binding
T1 construct: crude synaptosomal (P2) membrane fraction of guinea pig brain for sigma receptors; tissue Pel-Freeze, Rogers, Ak; host or cells: guinea pig brain minus cerebellum, crude synaptosomal (P2) membranes
T1 sequence (Q60492 whole entry): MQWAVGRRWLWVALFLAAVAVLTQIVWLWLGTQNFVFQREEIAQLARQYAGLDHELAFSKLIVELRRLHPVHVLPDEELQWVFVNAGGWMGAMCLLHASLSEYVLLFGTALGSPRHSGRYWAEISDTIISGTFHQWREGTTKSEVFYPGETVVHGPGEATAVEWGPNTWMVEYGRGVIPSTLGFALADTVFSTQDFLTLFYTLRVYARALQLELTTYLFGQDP

sigma receptor = target: T2, sigma receptor (Rattus norvegicus, UniProt Q9R0C9); test: Radioreceptor assay in rat brain homogenate, displacement of [3H]-(+)-3-PPP; assay type: binding; conditions: rat brain membranes; 2 nM [3H]-(+)-3-PPP; 1 hr, room temperature; units ± SEM; read-out: Ki apparent
T2 construct: Brains from male Sprague-Dawley rats were homogenized; from tissue; host or cells: rat brain crude membranes (male Sprague-Dawley)
T2 sequence (Q9R0C9 whole entry): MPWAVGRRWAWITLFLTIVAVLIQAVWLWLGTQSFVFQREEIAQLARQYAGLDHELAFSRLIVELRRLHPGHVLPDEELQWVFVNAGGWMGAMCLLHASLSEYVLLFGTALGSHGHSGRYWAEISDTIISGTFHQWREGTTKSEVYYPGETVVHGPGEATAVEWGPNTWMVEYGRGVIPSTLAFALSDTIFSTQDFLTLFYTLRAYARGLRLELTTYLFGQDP
Procedure: Acad. Sci., 83, 8784-8788, 1986] to determine the relative potency of the compounds interacting with the sigma receptor. To determine the effects of the compounds in a sigma receptor assay, crude membrane preparations were prepared as follows. Brains from male Sprague-Dawley rats were homogenized in 10 volumes (wt/vol) of 0.32M sucrose, using a Polytron grinder. The homogenate was centrifuged at 900×G for 10 minutes at 4° C. The supernatant was collected and centrifuged at 22,000×g for 20 minutes at 4° C. The pellet was resuspended in 10 volumes of 50 mM Tris/HCl buffer (pH 7.4) and centrifuged at 22,000×g for 20 minutes at 4° C. The pellet was resuspended in 5 mM Tris/HCl buffer (pH 7.4) to give a final concentration of 250 mg/ml of the crude material. Incubation tubes were prepared in triplicate and contained 0.1 ml of tissue suspension, 2 nM of [^3 H]-(+)-1-propyl-3-(3-hydroxyphenyl)piperidine {[^3 H]-3-(+)-PPP}, and varying concentrations of the displacing ligand (0.1-1000 nM) in a final volume of 0.5 ml. After a 1 hr incubation at room temperature, the contents of the test tubes were filtered through GS filter paper which had been presoaked for at least 2 hours in 0.05% polyethyleneamine. The test tubes were rinsed three times with Tris/HCl buffer. Radioactivity on the filters was determined and […] were calculated from inhibition curves using the method of Cheng and Prusoff [Biochem. Pharmacol., 22, 3099-3108, 1973].

[1] = test system: CA1 region of the hippocampus; test: Forebrain ischemia assay (bilateral carotid occlusion); assay type: in vivo, Mongolian gerbil; conditions: 50 mg/kg i.p. 30 minutes prior to carotid occlusion (15 min); 7 days; p<0.01
Procedure: Male Mongolian gerbils, 50-70 gm, were used as subjects. Compound No. 8 (50 mg/kg) was injected i.p. 30 minutes prior to carotid occlusion into 6 gerbils. In preparation for surgical procedures, the animals were lightly anesthetized with halothane and placed upside down on a heated pad with their snout within a nosecone. Nitrous oxide (70%): oxygen (30%) plus 0.5% halothane was circulated through the nosecone to provide continuous anesthesia throughout the surgical procedure. A midline incision was made in the neck and the carotid arteries were exposed. A length of suture thread was placed under each carotid. The thread was then tightened around each carotid and pressure applied to the thread to insure flow as occluded. Flow was occluded for 15 minutes and then the thread was removed. The carotids were visually inspected to confirm that reflow had occurred. The wound was then closed with autoclips and the gerbils allowed to recover. Following surgery, the gerbils were kept alive for 7 days. […] The degree of lesion in the CA1 region of the hippocampus was quantified by counting the pyramidal cell bodies in a 0.5 mm length of CA1 on the section corresponding to P 1.7 mm in the atlas of Loskota, Lnax and Verity [W. J. Loskota et al, A Stereotaxic Atlas of the Mongolian Gerbil Brain, Ann Arbor Science Publishers, Ann Arber, p. […]

[2] = test system: apomorphine-induced climbing; test: Blockage of apomorphine-induced climbing; assay type: in vivo, mouse (Swiss-Webster); conditions: 10 mg/kg; apomorphine 2 mg/kg s.c.; i.p. or s.c. pretreatment
Procedure: Compounds of the invention were evaluated for their ability to block apomorphine-induced climbing. The evaluation of the compounds followed the method outlined by Protais [Psychopharmcol., 50, 1-6, 1976]. Swiss-Webstermice, weighing 20-25 g, are pretreated with the compounds of the invention by i.p. or s.c. administration at various times before 2 mg/kg apomorphine is administered s.c. in a volume of 1 ml/kg. All test compounds are administered in a volume of 10 ml/kg. Mice are rated at 10 and 20 minutes after apomorphine administration using the following rating scale: (0) forepaws on the floor, (1) forefeet holding the bars, and (2) four paws holding bars. Dose-response curves are analyzed by a computerized Finney assay [Statistical Methods in Biological Assays, 2nd Edn., Hatner Pub. Co., New York (1964)].

In the case of `CN(CCc1ccc(Cl)c(Cl)c1)[C@@H]1CCCC[C@@H]1N1CCCC1` [Compound No. 8, 1R,2S-(+)-cis-N-[2-(3,4-dichlorophenyl)ethyl]-N-methyl-2-(1-pyrrolidinyl)cyclohexylamine], the Ki (sigma receptors) is reported as 6 ± 3 nM, the Ki (sigma receptor) is reported as 20 ± 1 nM and the “Cell loss in CA1 region of hippocampus” value [1] is reported as “significantly reduced”. The “Blockage of apomorphine-induced climbing” value [2] was “completely blocked”.
